Assay results taken from patent publication US8105980B1, “Method of increasing the content of flavonoids and phenolic substances substances inplants” (Basf Aktiengesellschaft, priority 1999, dated 2012).

Assays:
[1] = system: Apple plants cv. “Weirouge”; test: Eriodictyol and luteoliflavan content in young apple leaves after treatment (HPLC); assay type: in vivo; conditions: for Eriodictyol / Luteoliflavan: 250 ppm to runoff, youngest fully developed leaf
Procedure: Apple plants cv. “Weirouge” were grown under controlled-environment conditions and treated to runoff point with 250 ppm prohexadione-calcium (formulated as BAS 125 10 W=wettable granules, content 10%). At various points in time after the treatment, the youngest fully developed leaf was harvested from each individual shoot. The freeze-dried leaves which had been ground using a pestle and mortar were extracted with methanol. Flavonoids and related compounds in the concentrated extract were analyzed by HPLC. Separation was performed on Hypersil ODS (particle size 3 μm) on a 250×4 mm column. Elution was carried out at a flow rate of 0.5 ml per minute, and mixtures of formic acid (5% in water) and methanol, increased stepwise from a ratio of 95:5 to 10:90 (v/v) were used. Phenolic acids and flavonols were detected at 280 nm. Flavan-3-ols were determined by post-column derivatization with p-dimethylaminocinnamaldehyde at 640 nm. For methodological details, see Treutter et al. (1994), Journal of Chromatography A 667, 290-297.

[2] = system: Vines cv. “Dornfelder”; test: Treatment of Dornfelder vines: ripeness, acid, pigmentation and taste of harvested grapes; assay type: in vivo, grapevine
Procedure: Vines cv. “Dornfelder” were treated twice at different points in time with the formulation BAS 125 10W, which contains prohexadione-calcium. 1000 g of prohexadione-calcium in 1000 l of spray mixture were applied per ha per treatment.
The 1st application was carried out at developmental stage 73 before the berries developed their color, and the 2nd application 10 days thereafter.
Untreated control: 69° Oechsle, acid: 7.3 g/l; treated control: 67° Oechsle, acid: 7.4 g/l.

[3] = system: apple tissue cultures; conditions: cited from earlier work
[4] = system: shoot tissue of apples; conditions: shoot tissue of apples after exposure; cited from earlier work
[5] = two applications of 1000 g/ha in 1000 l spray mixture (BAS 125 10W), at harvest

prohexadione-calcium
Eriodictyol ([1]; 12 days after treatment): 17 g/kg dry matter
Luteoliflavan ([1]; 12 days after treatment): 0 g/kg dry matter
Eriodictyol ([1]; 21 days after treatment): 27 g/kg dry matter
Luteoliflavan ([1]; 21 days after treatment): 34 g/kg dry matter
eriodictyol concentration in treated leaves ([1]; after 12 and 21 days): markedly increased
pigmentation of treated grapes ([2]; compared with untreated grapes): less pronounced
taste of treated grapes ([2]; compared with untreated grapes): no difference was observed
acid of harvested grapes [2, 5]: 7.4 g/L
degree of ripeness of harvested grapes [2, 5]: 67 ° Oechsle
content of phenolic substances [3]: increased several times
catechin and cyanidin in treated tissue [4]: not detectable in the treated tissue, or found in considerably reduced amounts only
luteoliflavan and eriodictyol amounts [4]: relatively large amounts
